Experimental data published in US9115088B2, “Anti-malarial agents” (MERCK PATENT GMBH, priority 2012, dated 2015).
Counter-ions that a name gives are not always drawn. Like-named read-outs stand apart in the source and are kept apart here.

What was measured:
[1] = tested on: GFP-transfected Plasmodium berghei ANKA strain; experiment: Plasmodium berghei mouse model, standard Peter's four-day test; assay type: in vivo; conditions: NMRI female mice, oral, 1 mg/kg 4x (once a day for four days); for % Reduction in parasitaemia: parasitaemia 24 h after last dose
Source text: Plasmodium species that lead to human malarial infection are essentially unable to infect non-primate animal models. Rodent models as antimalarial drug discovery efficacy models for compound screening have been extensively used and validated for use through the identification of several antimalarial drugs such as mefloquine, and artemisinin derivatives. Such mouse models, including the Plasmodium berghei mouse model are an integral part of the drug discovery and development pathway. […] In particular experimental results have shown that a compound of formula (I) has improved potency, expressed as ED90, the dose required to eradicate 90% of the target infection [ED90 of 0.3-0.1 mg/kg], versus existing anti-malarial drugs.
Methodology. Using the standard Peter's test in NMRI female mice infected with GFP-transfected Plasmodium berghei ANKA strain were used. Test compounds were dosed orally once a day for four days at nine dose levels ([…], 0.03, 0.1, 0.3, 1, 3, 10, 30 mg/kg) and parasitaemia assessed 24 h after the last dose to determine ED90. The test protocol is described in detail Nature, 2004, 430, 900-904, the contents of which are included herein by reference.

[2] = tested on: Plasmodium falciparum strain 3D7; experiment: Plasmodium falciparum 3D7 growth inhibition, SYBRgreen fluorescence assay; assay type: cell-based; conditions: minimum of 3 independent experiments, read-out: EC50 (μM) for Pf 3D7
Protocol: Parasite cultures and cytotoxicity assay methodology for Plasmodium falciparum. Cultures of the widely-used malaria reference strain of chloroquinine-sensitive Plasmodium falciparum strain 3D7 were maintained in a 5% suspension of human red blood cells cultured in RPMI 1640 medium supplemented with 0.5% Albumax II (available from Gibco Life Technologies, San Diego, Calif.), 12 mM sodium bicarbonate, 0.2 mM hypoxanthine, (pH 7.3), and 20 mg/litre gentamicin at 37° C., in an atmosphere of 1% O2, 3% CO2 with a gas balance of nitrogen. […] Mefloquine was used as a drug control to monitor the quality of the assay (Z′=0.6 to 0.8, where Z′ is a measure of the discrimination between the positive and negative controls on a screen plate). Dose-response curves were determined from a minimum of 3 independent experiments. Compound bioactivity was expressed as EC50, the effective concentration of compound causing 50% parasite death.

[3] = Thermogravimetric analysis (TGA); assay type: physicochemical; conditions: 10° C./min; example 1A heated to ~120° C., example 2 to ~150° C.
Protocol: Thermogravimetric Analysis (TGA) of compounds of the invention was conducted at 10° C./min ramping form room temperature to desired temperature in open platinum pans using at TA Instruments Q5000 TGA. The temperature was calibrated using nickel and weight using TA-supplied standard weights and verified against calcium oxalate monohydrate dehydration and decomposition. Typical parameters for TGA are described in Table 5. [table]

[4] = Dynamic vapour sorption (DVS) moisture sorption; assay type: physicochemical; conditions: for hygroscopicity (DVS): 25° C.; for water uptake (DVS): 80% R.H./25° C.
Protocol: The moisture sorption of compounds of the invention was measured using a SMS (Surface Measurement Systems) DVS Intrinsic. The relative humidity at 25° C. was calibrated against deliquescence point of LiCl, Mg(NO3)2 and KCl. Parameters for DVS test are listed below. [table]

Plasmodium falciparum = experiment: P. falciparum SCID mouse model; assay type: in vivo; conditions: preliminary results
Source text: Compounds can be further assessed using a murine model of Plasmodium falciparum malaria (the so-called P. falciparum SCID mouse model). The murine Plasmodium falciparum models require the engrafment of mice with human erythrocytes. The use NODscidlL2Rγ^null mice engrafted with human erythrocytes and competent P. falciparum strains have been validated for the preclinincal evaluation of antimalarials. The test protocol is described in detail at Antimicrobial Agents and Chemotherapy, 2009, 53 4533-4536, the contents of which are included herein by reference.

[5] = tested on: sporogonic development in the mosquito; experiment: Standard membrane feeding assay (SMFA); assay type: in vivo; conditions: preliminary results
Source text: The standard membrane feeding assay (SMFA) is used to test the potential effects of compounds or drugs on sporogonic development in the mosquito and it is used to asses their potential for malaria transmission blocking in vivo. The test protocol is described in detail at Antimicrobial Agents and Chemotherapy, 2012, 56 3544-3548 and PLoS ONE 7(8): e42821, the contents of which are included herein by reference.

[6] = Plasmodium falciparum, 3D7, concentration causing 50% parasite death
[7] = concentration causing 50% parasite death

| SMILES | Mean Survival [1] | % Reduction in parasitaemia [1] | EC50 [2, 6] | EC50 [2, 7] | other results |
| --- | --- | --- | --- | --- | --- |
| O=C(NCCN1CCCC1)c1cc(-c2ccc(CN3CCOCC3)c(F)c2)nc2ccc(F)cc12 [Example 6, 6-fluoro-2-(3-fluoro-4-(morpholinomethyl)phenyl)-N-(2-(pyrrolidin-1-yl)ethyl)quinoline-4-carboxamide] | 11 days | 99.8% | 0.0007 µM | – | – |
| O=C(NCCN1CCCC1)c1cc(-c2ccc(CN3CCOCC3)cc2F)nc2ccc(F)cc12 [Example 7, 6-fluoro-2-(2-fluoro-4-(morpholinomethyl)phenyl)-N-(2-(pyrrolidin-1-yl)ethyl)quinoline-4-carboxamide] | 11 days | 99.9% | 0.0005 µM | – | – |
| O=C(NCCN1CCCC1)c1cc(-c2cc(F)c(CN3CCOCC3)c(F)c2)nc2ccc(F)cc12 [Example 8, 2-(3,5-difluoro-4-(morpholinomethyl)phenyl)-6-fluoro-N-(2-(pyrrolidin-1-yl)ethyl)quinoline-4-carboxamide] | – | – | 0.004 µM | – | – |
| O=C(NCCN1CCCC1)c1cc(-c2ccc(CN3CCOCC3)cc2)nc2ccc(Cl)cc12 [Example 3, 6-chloro-2-[4-(morpholinomethyl)phenyl]-N-(2-pyrrolidin-1-ylethyl)quinoline-4-carboxamide] | – | – | 0.001 µM | – | – |
| O=C(NCCN1CCCC1)c1cc(-c2ccc(CN3CCOCC3)cc2)nc2ccc(F)cc12.O=C(O)/C=C/C(=O)O [Example 2, 6-Fluoro-2-[4-(morpholinomethyl)phenyl]-N-(2-pyrrolidin-1-ylethyl)quinoline-4-carboxamide; fumaric acid salt] | – | – | – | 0.007 µM | weight loss on heating (TGA) [3]: negligible weight loss; solid form change post DVS testing [4]: No solid form change; hygroscopicity (DVS) [4]: slightly hygroscopic; water uptake (DVS) [4]: ~1.2% |
| O=C(NCCN1CCCC1)c1cc(-c2ccc(CN3CCOCC3)cc2Cl)nc2ccc(F)cc12 [Example 11, 2-(2-chloro-4-(morpholinomethyl)phenyl)-6-fluoro-N-(2-(pyrrolidin-1-yl)ethyl)quinoline-4-carboxamide; fumaric acid salt] | – | – | 0.003 µM | – | – |
| O=C(NCCN1CCCC1)c1cc(-c2ccc(CN3CCS(=O)(=O)CC3)cc2)nc2ccc(F)cc12 [Example 9, 2-(4-((1,1-dioxidothiomorpholino)methyl)phenyl)-6-fluoro-N-(2-(pyrrolidin-1-yl)ethyl)quinoline-4-carboxamide] | 7 days | 99.0% | 0.0006 µM | – | – |
| O=C(NCCN1CCCC1)c1cc(-c2ccc(CN3CCOCC3)cc2)nc2ccc(F)cc12 [Example 1, 6-Fluoro-2-[4-(morpholinomethyl)phenyl]-N-(2-pyrrolidin-1-ylethyl)quinoline-4-carboxamide] | 14 days | 99.9% | – | 0.001 µM | in vivo behaviour in the P. falciparum SCID mouse model (Plasmodium falciparum): desirable in vivo behaviour; weight loss on heating (TGA) [3]: < 0.1 wt %; solid form change post DVS testing [4]: No solid form change; hygroscopicity (DVS) [4]: non-hygroscopic; water uptake (DVS) [4]: 0.1%; in vivo behaviour in standard membrane feeding assay [5]: desirable in vivo behaviour |
| O=C(NCCN1CCCC1)c1cc(-c2ccc(CN3CCOCC3)cc2)nc2ccccc12 [Example 4, 2-[4-(morpholinomethyl)phenyl]-N-(2-pyrrolidin-1-ylethyl)quinoline-4-carboxamide] | – | – | – | 0.001 µM | – |
| O=C(NCCN1CCCC1)c1cc(-c2ccc(CN3CCOCC3)cc2)nc2ccccc12 [Example 5, 2-[4-(morpholinomethyl)phenyl]-N-(2-pyrrolidin-1-ylethyl)quinoline-4-carboxamide; fumaric acid salt] | – | – | – | 0.003 µM | – |
